According to ChEMBL document CHEMBL1140470, “Synthesis and in vitro evaluation of a selective antagonist and the corresponding radioligand for the prostaglandin D2 receptor CRTH2” (Bioorg Med Chem Lett, 2007):

How the values were obtained:
[1] = target: T1, Prostaglandin D2 receptor 2 (Homo sapiens, UniProt Q9Y5Y4); assay: Displacement of [3H]PGD2 from human CRTH2 receptor
T1 sequence (Q9Y5Y4 whole entry): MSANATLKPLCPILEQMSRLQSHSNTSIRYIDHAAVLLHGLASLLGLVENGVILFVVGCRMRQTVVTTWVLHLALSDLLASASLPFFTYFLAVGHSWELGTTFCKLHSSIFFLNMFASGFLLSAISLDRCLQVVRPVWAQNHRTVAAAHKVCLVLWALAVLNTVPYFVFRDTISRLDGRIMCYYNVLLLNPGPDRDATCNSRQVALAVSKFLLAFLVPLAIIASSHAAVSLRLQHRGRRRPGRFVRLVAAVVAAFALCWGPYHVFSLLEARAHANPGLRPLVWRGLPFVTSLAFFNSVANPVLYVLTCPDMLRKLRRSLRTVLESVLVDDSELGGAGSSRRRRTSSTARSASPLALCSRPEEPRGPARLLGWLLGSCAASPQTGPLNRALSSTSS

[2] = target: T1, Prostaglandin D2 receptor 2; assay: Antagonist activity at human CRTH2 receptor assessed as inhibition of PGD2-induced signaling by inositol-phosphate assay; type: functional
[3] = target: T2, Prostaglandin D2 receptor 2 (Homo sapiens) (UniProt Q9Y5Y4); assay: (§1) Displacement of [3H]TRQ11238 from human CRTH2 receptor expressed in HEK293 cells; type: cell-based; settings: tested as the 3H-labelled form
T2 sequence (whole entry): T1 sequence (Q9Y5Y4 whole entry)

CRTH2 (Homo sapiens) = assay: Selectivity for CRTH2 over DP and TP receptors
[4] = target: T1, Prostaglandin D2 receptor 2; assay: as §1; type: cell-based

| Compound | Ki [1] | IC50 [2] | Bmax [3] | Selectivity ratio (CRTH2 (Homo sapiens)) | Kd [4] |
| --- | --- | --- | --- | --- | --- |
| O=C(O)Cn1cc(CCN(Cc2ccccc2)S(=O)(=O)c2ccc(F)cc2)c2ccccc21 | 0.631 nM | 3.98 nM | 2790 fmol/mg | > 1000 |  |
| [3H]c1cc([3H])cc(CN(CCc2cn(CC(=O)O)c3ccccc23)S(=O)(=O)c2ccc(F)cc2)c1 |  |  |  |  | 1 nM |
